Laboratory results published in ChEMBL document CHEMBL4507301 (2021).

Experiments:
[1] = biological target: Atypical kinase COQ8A, mitochondrial (Homo sapiens) (UniProt Q8NI60); settings: Compound concentration 1000.0 nM
[2] = biological target: Serine/threonine-protein kinase BRSK2 (Homo sapiens) (UniProt Q8IWQ3); settings: Compound concentration 1000.0 nM
[3] = biological target: Calcium/calmodulin-dependent protein kinase type II subunit gamma (Homo sapiens) (UniProt Q13555); settings: Compound concentration 1000.0 nM
[4] = biological target: Cyclin-dependent kinase-like 2 (Homo sapiens) (UniProt Q92772); settings: Compound concentration 1000.0 nM
[5] = biological target: Serine/threonine-protein kinase Chk1 (Homo sapiens) (UniProt O14757); settings: Compound concentration 1000.0 nM
[6] = biological target: Death-associated protein kinase 2 (Homo sapiens) (UniProt Q9UIK4); settings: Compound concentration 1000.0 nM
[7] = biological target: Dual specificity tyrosine-phosphorylation-regulated kinase 1A (Homo sapiens) (UniProt Q13627); settings: Compound concentration 1000.0 nM
[8] = biological target: Epidermal growth factor receptor (Homo sapiens) (UniProt P00533); settings: Compound concentration 1000.0 nM
[9] = biological target: Ephrin type-A receptor 3 (Homo sapiens) (UniProt P29320); settings: Compound concentration 1000.0 nM
[10] = biological target: Ephrin type-A receptor 4 (Homo sapiens) (UniProt P54764); settings: Compound concentration 1000.0 nM
[11] = biological target: Mitogen-activated protein kinase 15 (Homo sapiens) (UniProt Q8TD08); settings: Compound concentration 1000.0 nM
[12] = biological target: Focal adhesion kinase 1 (Homo sapiens) (UniProt Q05397); settings: Compound concentration 1000.0 nM
[13] = biological target: Fibroblast growth factor receptor 2 (Homo sapiens) (UniProt P21802); settings: Compound concentration 1000.0 nM
[14] = test system: Fibroblast growth factor receptor 3 (Homo sapiens), P22607 [G697C]; settings: Compound concentration 1000.0 nM
[15] = test system: Receptor-type tyrosine-protein kinase FLT3 (Homo sapiens), P36888 [D835H]; settings: Compound concentration 1000.0 nM
[16] = test system: eIF-2-alpha kinase GCN2 (Homo sapiens), Q9P2K8 [S808G]; settings: Compound concentration 1000.0 nM
[17] = biological target: Rhodopsin kinase GRK7 (Homo sapiens) (UniProt Q8WTQ7); settings: Compound concentration 1000.0 nM
[18] = biological target: Serine/threonine-protein kinase ICK (Homo sapiens) (UniProt Q9UPZ9); settings: Compound concentration 1000.0 nM
[19] = test system: Mast/stem cell growth factor receptor Kit (Homo sapiens), P10721 [V559D]; settings: Compound concentration 1000.0 nM
[20] = biological target: LIM domain kinase 1 (Homo sapiens) (UniProt P53667); settings: Compound concentration 1000.0 nM
[21] = biological target: Serine/threonine-protein kinase 10 (Homo sapiens) (UniProt O94804); settings: Compound concentration 1000.0 nM
[22] = biological target: Mitogen-activated protein kinase kinase kinase 13 (Homo sapiens) (UniProt O43283); settings: Compound concentration 1000.0 nM
[23] = biological target: Mitogen-activated protein kinase kinase kinase 4 (Homo sapiens) (UniProt Q9Y6R4); settings: Compound concentration 1000.0 nM
[24] = biological target: Mitogen-activated protein kinase kinase kinase kinase 3 (Homo sapiens) (UniProt Q8IVH8); settings: Compound concentration 1000.0 nM
[25] = biological target: Serine/threonine-protein kinase MARK2 (Homo sapiens) (UniProt Q7KZI7); settings: Compound concentration 1000.0 nM
[26] = biological target: MAP/microtubule affinity-regulating kinase 3 (Homo sapiens) (UniProt P27448); settings: Compound concentration 1000.0 nM
[27] = biological target: Microtubule-associated serine/threonine-protein kinase 1 (Homo sapiens) (UniProt Q9Y2H9); settings: Compound concentration 1000.0 nM
[28] = biological target: Myosin light chain kinase, smooth muscle (Homo sapiens) (UniProt Q15746); settings: Compound concentration 1000.0 nM
[29] = biological target: Serine/threonine-protein kinase Nek9 (Homo sapiens) (UniProt Q8TD19); settings: Compound concentration 1000.0 nM
[30] = biological target: Cyclin-dependent kinase 14 (Homo sapiens) (UniProt O94921); settings: Compound concentration 1000.0 nM
[31] = biological target: Phosphatidylinositol 3-kinase C2 domain-containing subunit gamma (Homo sapiens) (UniProt O75747); settings: Compound concentration 1000.0 nM
[32] = test system: Phosphatidylinositol 4,5-bisphosphate 3-kinase catalytic subunit alpha isoform (Homo sapiens), P42336 [E545A]; settings: Compound concentration 1000.0 nM
[33] = biological target: Serine/threonine-protein kinase pim-3 (Homo sapiens) (UniProt Q86V86); settings: Compound concentration 1000.0 nM
[34] = biological target: Phosphatidylinositol 4-phosphate 5-kinase type-1 alpha (Homo sapiens) (UniProt Q99755); settings: Compound concentration 1000.0 nM
[35] = test system: Proto-oncogene tyrosine-protein kinase receptor Ret (Homo sapiens), P07949 [V804L]; settings: Compound concentration 1000.0 nM
[36] = biological target: Dual serine/threonine and tyrosine protein kinase (Homo sapiens) (UniProt Q6XUX3); settings: Compound concentration 1000.0 nM
[37] = biological target: Ribosomal protein S6 kinase alpha-1 (Homo sapiens) (UniProt Q15418); settings: Compound concentration 1000.0 nM
[38] = biological target: Serine/threonine-protein kinase Sgk3 (Homo sapiens) (UniProt Q96BR1); settings: Compound concentration 1000.0 nM
[39] = biological target: Serine/threonine-protein kinase SIK2 (Homo sapiens) (UniProt Q9H0K1); settings: Compound concentration 1000.0 nM
[40] = biological target: Proto-oncogene tyrosine-protein kinase Src (Homo sapiens) (UniProt P12931); settings: Compound concentration 1000.0 nM
[41] = biological target: TGF-beta receptor type-1 (Homo sapiens) (UniProt P36897); settings: Compound concentration 1000.0 nM
[42] = biological target: Non-receptor tyrosine-protein kinase TYK2 (Homo sapiens) (UniProt P29597); settings: Compound concentration 1000.0 nM
[43] = biological target: Vascular endothelial growth factor receptor 2 (Homo sapiens) (UniProt P35968); settings: Compound concentration 1000.0 nM
[44] = biological target: Mitogen-activated protein kinase kinase kinase 19 (Homo sapiens) (UniProt Q56UN5); settings: Compound concentration 1000.0 nM
[45] = biological target: 5-hydroxytryptamine receptor 1B (Homo sapiens) (UniProt P28222); settings: Compound concentration 10.0 uM

Chain of eIF-2-alpha kinase GCN2 (Homo sapiens), Q9P2K8 [S808G] (Q9P2K8 whole entry S808G): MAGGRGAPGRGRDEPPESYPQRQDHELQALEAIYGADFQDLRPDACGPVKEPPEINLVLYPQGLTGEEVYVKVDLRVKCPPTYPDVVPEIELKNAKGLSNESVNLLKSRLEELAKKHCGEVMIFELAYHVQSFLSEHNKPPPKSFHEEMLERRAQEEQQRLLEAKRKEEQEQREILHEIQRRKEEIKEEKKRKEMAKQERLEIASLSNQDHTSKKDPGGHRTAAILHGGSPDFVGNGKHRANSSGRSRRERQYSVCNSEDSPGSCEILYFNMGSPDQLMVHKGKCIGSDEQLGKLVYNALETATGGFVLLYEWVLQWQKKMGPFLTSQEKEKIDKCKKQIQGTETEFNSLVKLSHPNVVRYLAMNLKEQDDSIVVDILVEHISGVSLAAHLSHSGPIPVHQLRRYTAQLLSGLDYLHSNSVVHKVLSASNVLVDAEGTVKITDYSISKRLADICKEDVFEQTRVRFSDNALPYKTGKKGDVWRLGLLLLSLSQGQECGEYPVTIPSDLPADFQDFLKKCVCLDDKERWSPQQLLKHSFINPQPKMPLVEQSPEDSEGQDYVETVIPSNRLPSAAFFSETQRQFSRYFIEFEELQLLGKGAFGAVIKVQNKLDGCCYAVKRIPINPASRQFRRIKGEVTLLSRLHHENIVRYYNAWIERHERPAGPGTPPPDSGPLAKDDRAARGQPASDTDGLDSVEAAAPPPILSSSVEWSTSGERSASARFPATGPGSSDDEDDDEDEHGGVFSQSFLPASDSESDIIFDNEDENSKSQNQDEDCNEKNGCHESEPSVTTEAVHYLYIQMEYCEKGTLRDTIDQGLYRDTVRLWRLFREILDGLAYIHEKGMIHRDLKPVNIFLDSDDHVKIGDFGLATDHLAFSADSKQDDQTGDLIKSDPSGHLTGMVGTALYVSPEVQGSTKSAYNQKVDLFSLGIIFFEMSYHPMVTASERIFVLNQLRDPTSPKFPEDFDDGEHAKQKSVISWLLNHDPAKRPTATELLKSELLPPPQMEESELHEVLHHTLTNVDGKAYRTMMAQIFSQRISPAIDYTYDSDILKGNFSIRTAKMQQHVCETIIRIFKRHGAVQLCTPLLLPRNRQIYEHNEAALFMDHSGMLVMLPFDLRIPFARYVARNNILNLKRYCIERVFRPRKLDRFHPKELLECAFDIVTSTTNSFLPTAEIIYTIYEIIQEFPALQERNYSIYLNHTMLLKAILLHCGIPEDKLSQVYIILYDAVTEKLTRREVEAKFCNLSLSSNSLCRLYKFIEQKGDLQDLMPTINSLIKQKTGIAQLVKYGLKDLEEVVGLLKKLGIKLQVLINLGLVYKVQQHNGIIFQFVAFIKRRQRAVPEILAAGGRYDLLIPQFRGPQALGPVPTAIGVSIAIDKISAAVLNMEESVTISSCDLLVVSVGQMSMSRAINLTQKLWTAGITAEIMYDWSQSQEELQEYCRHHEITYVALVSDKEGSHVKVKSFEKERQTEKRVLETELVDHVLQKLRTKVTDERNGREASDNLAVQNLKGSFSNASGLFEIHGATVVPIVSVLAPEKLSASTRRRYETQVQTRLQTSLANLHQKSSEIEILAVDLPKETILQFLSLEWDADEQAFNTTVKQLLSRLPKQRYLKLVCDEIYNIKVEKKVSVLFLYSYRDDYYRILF
Chain of TGF-beta receptor type-1 (Homo sapiens) (P36897 whole entry): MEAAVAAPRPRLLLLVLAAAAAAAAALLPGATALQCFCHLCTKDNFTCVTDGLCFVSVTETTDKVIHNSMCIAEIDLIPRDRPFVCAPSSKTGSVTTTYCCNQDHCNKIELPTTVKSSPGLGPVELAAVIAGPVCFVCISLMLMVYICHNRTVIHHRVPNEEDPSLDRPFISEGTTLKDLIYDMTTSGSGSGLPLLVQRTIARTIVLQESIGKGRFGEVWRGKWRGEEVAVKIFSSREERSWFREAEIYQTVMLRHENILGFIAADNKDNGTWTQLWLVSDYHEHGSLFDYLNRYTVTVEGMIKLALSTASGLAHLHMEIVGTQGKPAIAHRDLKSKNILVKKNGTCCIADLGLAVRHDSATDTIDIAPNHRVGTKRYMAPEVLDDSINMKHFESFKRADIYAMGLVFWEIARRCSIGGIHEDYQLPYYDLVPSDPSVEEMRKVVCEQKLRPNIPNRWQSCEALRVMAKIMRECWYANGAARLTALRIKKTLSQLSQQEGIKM
Chain of Proto-oncogene tyrosine-protein kinase Src (Homo sapiens) (P12931 2-536 limits assumed): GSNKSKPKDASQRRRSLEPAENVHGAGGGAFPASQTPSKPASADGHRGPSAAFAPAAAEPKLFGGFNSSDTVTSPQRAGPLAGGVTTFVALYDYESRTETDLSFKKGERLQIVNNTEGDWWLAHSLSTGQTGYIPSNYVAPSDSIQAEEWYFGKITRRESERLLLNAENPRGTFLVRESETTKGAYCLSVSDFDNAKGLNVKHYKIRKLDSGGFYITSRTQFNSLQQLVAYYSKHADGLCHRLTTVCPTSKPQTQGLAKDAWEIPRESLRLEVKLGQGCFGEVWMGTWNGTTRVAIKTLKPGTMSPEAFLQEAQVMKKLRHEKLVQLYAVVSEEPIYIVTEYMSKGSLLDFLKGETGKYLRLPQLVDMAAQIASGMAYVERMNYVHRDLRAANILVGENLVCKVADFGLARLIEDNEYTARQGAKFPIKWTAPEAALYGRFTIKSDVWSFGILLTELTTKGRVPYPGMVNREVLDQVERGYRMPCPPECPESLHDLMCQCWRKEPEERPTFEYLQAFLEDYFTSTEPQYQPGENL
Chain of LIM domain kinase 1 (Homo sapiens) (P53667 whole entry, looked up, the tested form may be a part): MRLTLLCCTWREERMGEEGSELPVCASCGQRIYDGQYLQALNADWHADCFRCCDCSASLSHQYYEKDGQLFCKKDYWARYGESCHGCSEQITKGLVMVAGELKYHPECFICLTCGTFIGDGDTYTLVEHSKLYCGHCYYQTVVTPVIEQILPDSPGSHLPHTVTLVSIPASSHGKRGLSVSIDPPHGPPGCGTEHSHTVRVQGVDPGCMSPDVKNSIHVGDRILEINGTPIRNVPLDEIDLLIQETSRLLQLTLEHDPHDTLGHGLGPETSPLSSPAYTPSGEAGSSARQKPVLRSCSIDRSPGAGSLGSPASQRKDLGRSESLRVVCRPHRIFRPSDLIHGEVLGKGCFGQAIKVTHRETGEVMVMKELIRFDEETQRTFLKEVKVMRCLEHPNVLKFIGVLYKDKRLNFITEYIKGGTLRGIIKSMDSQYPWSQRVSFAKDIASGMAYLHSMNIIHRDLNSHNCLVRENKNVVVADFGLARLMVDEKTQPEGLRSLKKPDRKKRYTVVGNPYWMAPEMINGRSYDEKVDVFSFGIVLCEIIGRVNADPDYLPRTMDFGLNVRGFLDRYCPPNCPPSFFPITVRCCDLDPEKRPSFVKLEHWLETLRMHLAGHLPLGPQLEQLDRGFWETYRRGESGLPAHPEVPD
Chain of Cyclin-dependent kinase 14 (Homo sapiens) (O94921 whole entry, the tested form may be a part): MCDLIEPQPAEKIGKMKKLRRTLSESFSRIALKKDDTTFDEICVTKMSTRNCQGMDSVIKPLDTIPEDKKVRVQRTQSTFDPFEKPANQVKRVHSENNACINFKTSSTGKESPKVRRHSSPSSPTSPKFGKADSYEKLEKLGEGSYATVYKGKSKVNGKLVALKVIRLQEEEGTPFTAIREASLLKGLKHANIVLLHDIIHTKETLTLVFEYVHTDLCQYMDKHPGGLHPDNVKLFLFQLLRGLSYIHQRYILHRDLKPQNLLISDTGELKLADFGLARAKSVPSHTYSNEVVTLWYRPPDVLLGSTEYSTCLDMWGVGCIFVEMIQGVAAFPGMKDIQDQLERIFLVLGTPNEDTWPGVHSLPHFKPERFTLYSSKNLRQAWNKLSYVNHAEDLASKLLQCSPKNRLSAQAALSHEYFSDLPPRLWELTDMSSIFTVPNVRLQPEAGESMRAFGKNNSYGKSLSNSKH
Chain of Non-receptor tyrosine-protein kinase TYK2 (Homo sapiens) (P29597 whole entry): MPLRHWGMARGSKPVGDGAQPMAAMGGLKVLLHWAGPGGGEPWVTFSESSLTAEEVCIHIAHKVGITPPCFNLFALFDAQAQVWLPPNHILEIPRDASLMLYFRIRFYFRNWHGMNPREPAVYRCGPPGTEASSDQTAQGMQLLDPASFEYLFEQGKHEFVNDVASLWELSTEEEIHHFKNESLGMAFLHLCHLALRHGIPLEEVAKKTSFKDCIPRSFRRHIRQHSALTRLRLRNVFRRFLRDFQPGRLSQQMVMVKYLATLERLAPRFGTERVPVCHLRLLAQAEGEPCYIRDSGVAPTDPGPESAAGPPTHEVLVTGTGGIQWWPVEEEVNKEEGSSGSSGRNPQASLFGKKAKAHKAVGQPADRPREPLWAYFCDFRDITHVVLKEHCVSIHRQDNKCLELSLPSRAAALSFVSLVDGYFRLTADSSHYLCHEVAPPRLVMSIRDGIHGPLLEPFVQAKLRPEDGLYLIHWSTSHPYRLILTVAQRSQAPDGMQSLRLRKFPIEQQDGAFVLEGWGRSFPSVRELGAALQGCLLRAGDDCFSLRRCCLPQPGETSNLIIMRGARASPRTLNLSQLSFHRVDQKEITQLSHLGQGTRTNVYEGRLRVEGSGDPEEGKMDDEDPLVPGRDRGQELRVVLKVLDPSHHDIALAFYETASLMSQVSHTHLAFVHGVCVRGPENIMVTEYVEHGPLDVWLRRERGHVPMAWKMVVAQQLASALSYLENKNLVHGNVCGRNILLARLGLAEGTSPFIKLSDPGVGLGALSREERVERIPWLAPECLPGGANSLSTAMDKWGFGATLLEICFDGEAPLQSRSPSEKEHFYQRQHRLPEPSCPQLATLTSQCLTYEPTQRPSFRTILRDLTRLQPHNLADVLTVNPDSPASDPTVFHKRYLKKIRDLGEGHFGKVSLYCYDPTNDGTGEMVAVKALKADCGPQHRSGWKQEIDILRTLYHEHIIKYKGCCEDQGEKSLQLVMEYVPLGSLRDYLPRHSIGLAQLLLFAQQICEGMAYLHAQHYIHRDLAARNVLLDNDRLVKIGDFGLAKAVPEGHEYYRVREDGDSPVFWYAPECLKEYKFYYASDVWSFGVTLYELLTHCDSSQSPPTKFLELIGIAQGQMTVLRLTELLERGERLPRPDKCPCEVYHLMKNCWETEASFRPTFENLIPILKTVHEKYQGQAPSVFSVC

## C[C@@H](c1cccc(C#N)c1)n1cc(Cl)cc(C(N)=O)c1=N [(S)-9s]
[1]
  residual activity: 89%
[2]
  residual activity: 95%
[3]
  residual activity: 100%
[4]
  residual activity: 100%
[5]
  residual activity: 100%
[6]
  residual activity: 100%
[7]
  residual activity: 75%
[8]
  residual activity: 100%
[9]
  residual activity: 92%
[10]
  residual activity: 90%
[11]
  residual activity: 100%
[12]
  residual activity: 100%
[13]
  residual activity: 67%
[14]
  residual activity: 79%
[15]
  residual activity: 81%
[16]
  residual activity: 50%
[17]
  residual activity: 82%
[18]
  residual activity: 81%
[19]
  residual activity: 93%
[20]
  residual activity: 100%
[21]
  residual activity: 86%
[22]
  residual activity: 100%
[23]
  residual activity: 71%
[24]
  residual activity: 100%
[25]
  residual activity: 100%
[26]
  residual activity: 98%
[27]
  residual activity: 100%
[28]
  residual activity: 88%
[29]
  residual activity: 97%
[30]
  residual activity: 100%
[31]
  residual activity: 84%
[32]
  residual activity: 98%
[33]
  residual activity: 100%
[34]
  residual activity: 100%
[35]
  residual activity: 86%
[36]
  residual activity: 87%
[37]
  residual activity: 100%
[38]
  residual activity: 77%
[39]
  residual activity: 100%
[40]
  residual activity: 99%
[41]
  residual activity: 81%
[42]
  residual activity: 94%
[43]
  residual activity: 73%
[44]
  residual activity: 94%
[45]
  inhibition: -2.19%

## C[C@H](c1cccc(C#N)c1)n1cc(Cl)cc(C(N)=O)c1=N [(R)-9s]
[1]
  residual activity: 88%
[2]
  residual activity: 85%
[3]
  residual activity: 100%
[4]
  residual activity: 100%
[5]
  residual activity: 100%
[6]
  residual activity: 100%
[7]
  residual activity: 65%
[8]
  residual activity: 100%
[9]
  residual activity: 100%
[10]
  residual activity: 65%
[11]
  residual activity: 100%
[12]
  residual activity: 100%
[13]
  residual activity: 43%
[14]
  residual activity: 100%
[15]
  residual activity: 80%
[16]
  residual activity: 45%
[17]
  residual activity: 85%
[18]
  residual activity: 98%
[19]
  residual activity: 83%
[20]
  residual activity: 88%
[21]
  residual activity: 100%
[22]
  residual activity: 97%
[23]
  residual activity: 47%
[24]
  residual activity: 76%
[25]
  residual activity: 100%
[26]
  residual activity: 100%
[27]
  residual activity: 96%
[28]
  residual activity: 100%
[29]
  residual activity: 79%
[30]
  residual activity: 100%
[31]
  residual activity: 88%
[32]
  residual activity: 100%
[33]
  residual activity: 100%
[34]
  residual activity: 100%
[35]
  residual activity: 87%
[36]
  residual activity: 83%
[37]
  residual activity: 97%
[38]
  residual activity: 80%
[39]
  residual activity: 100%
[40]
  residual activity: 88%
[41]
  residual activity: 100%
[42]
  residual activity: 75%
[43]
  residual activity: 88%
[44]
  residual activity: 76%
[45]
  inhibition: 9.16%
